Assay results: ChEMBL document CHEMBL1201862, “PubChem BioAssay data set” (2004)
The source made the active and inactive calls. Numbered stars: 1 amine (or outer) side, 2 acyl side, 3 side chain; on linkers, the order of the positions; unused ones are H or OH. Square brackets hold non-standard residues; d marks the D form. Peptide text beside a SMILES is read from it. ξ: configuration not given here. ξR = N=C(N)NCCCC(N)C(=O)O; ξF = NC(Cc1ccccc1)C(=O)O; CO = O=C([*:1])[*:2]

Columns and labels:
[1] = CEM21 lymphoblast cell cytotoxicity, dose response, cytotoxicity control for viral fusion inhibitor project, CellTiter-Glo luminescence, cherry-picked (AID 652042); assay type: functional, cell-based;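 note: potency for signal decrease meaning cytotoxicity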
[2] = ZM109 Env clade C HIV-1 fusion inhibitors, dose response, HeLa effector, CEM target cells, luciferase, cherry-pick (AID 652058); assay type: functional, cell-based
[3] = off-target signal loss in HeLa-CEM21 co-culture – HeLa F-luc CTL cells, cherry-picked, counter-screen for HIV-1 Env fusion inhibitor project, dose response (AID 652040); assay type: functional, cell-based;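 note: potency for signal decrease marking cytotoxic or nonspecific inhibition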
[4] = inhibitors of clade B AD8 Env fusion, dose response, cell-based, cherry-pick (AID 652062); assay type: functional;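 note: luciferase signal from cell-cell fusion driven by HIV-1 clade B AD8 Env; potency is for inhibitors of fusion seen as a drop in luminescence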
[5] = inhibitors of HIV Env-driven cell fusion, dose response, cherry-pick (AID 652057); assay type: functional, cell-based
[6] = molecular target: T1, Latent membrane protein 1 (Human herpesvirus 4 (strain B95-8), UniProt P03230); test: TES1-eGFP NF-kB reporter inhibition versus Tet-On dsRED, dose response, selectivity assay for LMP1 NF-kB inhibitor project, imaging, HEK293T, dual-color eGFP/dsRED, cherry-picks (AID 588398); assay type: functional, cell-based
T1 sequence (P03230 whole entry): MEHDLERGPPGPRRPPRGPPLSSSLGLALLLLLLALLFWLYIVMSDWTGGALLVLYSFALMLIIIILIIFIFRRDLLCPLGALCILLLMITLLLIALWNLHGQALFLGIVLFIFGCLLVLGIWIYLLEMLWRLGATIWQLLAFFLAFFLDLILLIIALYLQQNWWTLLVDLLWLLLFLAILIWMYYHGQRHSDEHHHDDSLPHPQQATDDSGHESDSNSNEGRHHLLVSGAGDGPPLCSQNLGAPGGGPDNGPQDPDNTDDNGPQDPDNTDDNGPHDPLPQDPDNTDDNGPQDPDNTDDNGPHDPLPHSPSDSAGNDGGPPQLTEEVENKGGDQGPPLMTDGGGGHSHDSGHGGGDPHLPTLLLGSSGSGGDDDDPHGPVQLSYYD

[7] = molecular target: Beta-galactosidase (Escherichia coli, UniProt Q8VNN2); test: PubChem AID 485352; assay type: functional
[8] = molecular target: T2, Type-1 angiotensin II receptor (Homo sapiens, UniProt P30556); test: AT1 receptor antagonists, dose response, selectivity assay for APJ receptor antagonist project, cell-based, uHTS hits (AID 463214); assay type: functional;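 note: antagonist potency against angiotensin II stimulated AT1 response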
T2 sequence (P30556 whole entry): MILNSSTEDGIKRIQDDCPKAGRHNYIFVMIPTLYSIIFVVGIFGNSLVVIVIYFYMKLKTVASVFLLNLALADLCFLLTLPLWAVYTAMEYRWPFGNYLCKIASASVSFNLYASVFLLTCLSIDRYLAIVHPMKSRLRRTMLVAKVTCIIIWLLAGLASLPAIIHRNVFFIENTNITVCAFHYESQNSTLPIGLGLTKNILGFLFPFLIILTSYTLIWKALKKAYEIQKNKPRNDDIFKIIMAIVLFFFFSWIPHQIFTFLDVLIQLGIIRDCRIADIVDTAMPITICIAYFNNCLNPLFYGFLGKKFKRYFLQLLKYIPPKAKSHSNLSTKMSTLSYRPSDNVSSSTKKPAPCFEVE

[9] = molecular target: Cytochrome P450 2C9 (Homo sapiens, UniProt P11712)
[10] = tested on: HEK293; test: inhibitors of LMP1-driven NF-kB reporter, dose response, cell-based, HEK293, luciferase, cherry-pick (AID 588343); assay type: functional; conditions: Homo sapiens
[11] = tested on: Vero; test: cells; assay type: functional, cell-based; conditions: Chlorocebus sabaeus
[12] = molecular target: T3, Short transient receptor potential channel 4 (Mus musculus, UniProt Q9QUQ5); test: mouse TRPC4 channel inhibitors, dose response, cell-based, HEK293 TRPC4/mu-opioid, Fluo-4 calcium (AID 434942); assay type: functional;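 note: potency of inhibitors blocking the TRPC4 calcium response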
T3 sequence (Q9QUQ5 whole entry): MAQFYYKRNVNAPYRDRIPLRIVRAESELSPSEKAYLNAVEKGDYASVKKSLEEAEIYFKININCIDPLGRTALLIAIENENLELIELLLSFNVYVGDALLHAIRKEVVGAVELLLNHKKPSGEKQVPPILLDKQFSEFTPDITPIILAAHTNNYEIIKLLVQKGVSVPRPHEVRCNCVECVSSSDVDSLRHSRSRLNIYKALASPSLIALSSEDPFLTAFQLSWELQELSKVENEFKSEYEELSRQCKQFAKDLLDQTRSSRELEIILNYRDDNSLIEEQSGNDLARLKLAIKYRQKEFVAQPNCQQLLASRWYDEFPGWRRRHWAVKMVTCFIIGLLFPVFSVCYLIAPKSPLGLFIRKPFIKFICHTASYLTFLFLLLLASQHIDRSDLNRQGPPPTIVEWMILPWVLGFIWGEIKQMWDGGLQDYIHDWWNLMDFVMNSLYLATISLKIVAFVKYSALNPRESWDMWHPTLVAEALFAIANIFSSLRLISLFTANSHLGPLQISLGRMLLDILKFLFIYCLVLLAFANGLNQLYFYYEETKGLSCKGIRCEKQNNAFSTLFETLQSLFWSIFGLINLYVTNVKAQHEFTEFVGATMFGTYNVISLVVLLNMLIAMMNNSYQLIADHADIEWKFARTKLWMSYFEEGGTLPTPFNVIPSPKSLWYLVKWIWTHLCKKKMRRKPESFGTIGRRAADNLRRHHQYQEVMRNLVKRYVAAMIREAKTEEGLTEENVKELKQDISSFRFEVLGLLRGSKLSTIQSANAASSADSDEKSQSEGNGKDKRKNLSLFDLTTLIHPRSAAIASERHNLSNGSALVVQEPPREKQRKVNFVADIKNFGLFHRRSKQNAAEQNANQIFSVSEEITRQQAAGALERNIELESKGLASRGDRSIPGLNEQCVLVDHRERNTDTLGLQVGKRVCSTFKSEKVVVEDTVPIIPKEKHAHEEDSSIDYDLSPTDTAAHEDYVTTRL

[13] = molecular target: T3, Short transient receptor potential channel 4; test: mouse TRPC4 channel activators, dose response, cell-based, HEK293 TRPC4/mu-opioid, Fluo-4 calcium (AID 434937); assay type: functional
[14] = Luminescence Cell-Based Dose Retest to Confirm Inhibitors of Cancer Stem Cells. [Related pubchem assays (depositor defined):AID2717, AID2721]; assay type: functional; conditions: Homo sapiens
[15] = molecular target: T4, Coagulation factor XII (Homo sapiens, UniProt P00748); assay type: functional;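 note: activated factor XIIa alpha cleaving a fluorogenic AMC peptide substrate; inhibitor potency from loss of enzyme activity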
T4 sequence (P00748 whole entry): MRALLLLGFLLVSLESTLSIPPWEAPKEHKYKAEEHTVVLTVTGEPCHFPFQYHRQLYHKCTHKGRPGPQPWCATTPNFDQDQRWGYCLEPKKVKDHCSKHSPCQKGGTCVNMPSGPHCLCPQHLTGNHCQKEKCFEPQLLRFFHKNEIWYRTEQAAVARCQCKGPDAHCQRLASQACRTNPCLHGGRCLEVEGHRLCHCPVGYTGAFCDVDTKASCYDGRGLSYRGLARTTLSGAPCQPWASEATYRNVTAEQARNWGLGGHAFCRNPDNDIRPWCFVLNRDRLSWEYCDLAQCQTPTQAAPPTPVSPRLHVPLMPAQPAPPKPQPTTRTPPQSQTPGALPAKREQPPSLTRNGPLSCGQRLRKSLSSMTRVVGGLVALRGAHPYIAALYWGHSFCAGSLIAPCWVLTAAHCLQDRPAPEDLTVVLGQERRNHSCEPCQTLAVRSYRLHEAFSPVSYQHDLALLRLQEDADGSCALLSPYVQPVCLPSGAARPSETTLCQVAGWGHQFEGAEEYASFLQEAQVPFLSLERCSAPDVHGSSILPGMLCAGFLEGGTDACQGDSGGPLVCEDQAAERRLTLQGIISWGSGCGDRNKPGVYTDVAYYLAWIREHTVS

Chain of Beta-galactosidase (Q8VNN2 whole entry): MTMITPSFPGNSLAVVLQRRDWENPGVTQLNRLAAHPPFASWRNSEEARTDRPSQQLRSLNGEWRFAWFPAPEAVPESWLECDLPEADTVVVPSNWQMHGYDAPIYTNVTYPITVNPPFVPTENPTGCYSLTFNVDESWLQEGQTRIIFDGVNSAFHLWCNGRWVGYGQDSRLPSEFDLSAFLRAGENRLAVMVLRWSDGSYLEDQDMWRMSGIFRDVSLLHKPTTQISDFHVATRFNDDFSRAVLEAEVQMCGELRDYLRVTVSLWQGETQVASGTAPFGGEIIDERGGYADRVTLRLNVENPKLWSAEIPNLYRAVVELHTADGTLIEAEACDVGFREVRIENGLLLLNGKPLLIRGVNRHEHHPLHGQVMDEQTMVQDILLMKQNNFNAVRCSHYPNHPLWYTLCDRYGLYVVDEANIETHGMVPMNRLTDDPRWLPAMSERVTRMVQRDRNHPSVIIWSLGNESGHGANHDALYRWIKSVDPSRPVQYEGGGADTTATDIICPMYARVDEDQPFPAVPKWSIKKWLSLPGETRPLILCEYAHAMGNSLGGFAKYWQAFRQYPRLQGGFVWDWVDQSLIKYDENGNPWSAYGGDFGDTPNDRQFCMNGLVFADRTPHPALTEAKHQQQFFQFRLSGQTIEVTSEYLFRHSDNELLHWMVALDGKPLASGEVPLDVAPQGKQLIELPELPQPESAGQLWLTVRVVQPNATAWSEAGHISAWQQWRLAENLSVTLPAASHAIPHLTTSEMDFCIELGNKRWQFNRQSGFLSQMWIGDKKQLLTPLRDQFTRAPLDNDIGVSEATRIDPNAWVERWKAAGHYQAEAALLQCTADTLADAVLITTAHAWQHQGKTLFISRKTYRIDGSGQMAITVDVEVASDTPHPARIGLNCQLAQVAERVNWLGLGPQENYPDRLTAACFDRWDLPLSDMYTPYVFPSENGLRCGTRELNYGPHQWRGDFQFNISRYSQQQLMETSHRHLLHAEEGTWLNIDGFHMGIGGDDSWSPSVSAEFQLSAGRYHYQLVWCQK
Chain of Cytochrome P450 2C9 (P11712 whole entry): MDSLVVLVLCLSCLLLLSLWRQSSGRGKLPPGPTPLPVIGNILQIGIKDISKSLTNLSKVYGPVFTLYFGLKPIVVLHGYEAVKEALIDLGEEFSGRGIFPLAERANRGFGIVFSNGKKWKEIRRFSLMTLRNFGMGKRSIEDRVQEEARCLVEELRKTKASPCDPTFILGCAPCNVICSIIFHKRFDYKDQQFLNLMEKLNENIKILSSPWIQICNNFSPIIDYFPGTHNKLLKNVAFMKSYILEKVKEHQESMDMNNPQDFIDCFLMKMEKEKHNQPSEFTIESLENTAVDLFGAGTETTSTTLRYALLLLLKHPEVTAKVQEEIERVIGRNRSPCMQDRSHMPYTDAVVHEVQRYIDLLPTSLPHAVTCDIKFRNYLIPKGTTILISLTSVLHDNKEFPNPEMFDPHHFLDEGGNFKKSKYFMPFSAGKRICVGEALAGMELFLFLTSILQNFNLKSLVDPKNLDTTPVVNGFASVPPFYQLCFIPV

With `CCCCN1C(=O)C(O)(c2ccccc2)c2cc(Br)ccc21` (centres undefined) the AC50 [1] was 48.2 µM (active), the AC50 [2] was 4.73 µM (active) and the AC50 [3] was 6.01 µM (active). The AC50 [4] was 7.82 µM (active) and the AC50 [5] was 4.89 µM (active).

With `COc1cc(OC)cc(C(=O)N[C@H](C(=O)OCC(=O)c2ccc(C)c([N+](=O)[O-])c2)C(C)C)c1` the AC50 [6] was 42.8 µM (active), the EC50 [7] was > 40 µM (inactive) and the IC50 [8] was > 40 µM (not active).

For `NC(=O)c1nn(-c2ccccc2)c(=O)cc1O`, the AC50 [9] was “inconclusive”.

In the case of `COc1cc2c(=O)n(CC3CCCO3)c(=O)n(CC(=O)Nc3cccc(Cl)c3)c2cc1OC` (centres undefined), the AC50 [10] was 84.3 µM (active) and the AC50 [6] was 277 µM (active).

With `CNc1cccnc1C=NNC(N)=S` the AC50 [1] was 5.69 µM (active), the AC50 [2] was 0.805 µM (active) and the AC50 [3] was 9.89 µM (active). For the same molecule, the AC50 [4] was 1.94 µM (active), the AC50 [5] was 0.457 µM (active) and the AC50 [10] was 2.43 µM (active). The AC50 [6] was 6.42 µM (active).

In the case of `OC1(c2cccs2)C[N+](c2ccc(Cl)cc2)=C2CCCCN21` (centres undefined), the IC50 [11] was 8.4 µM (active) and the EC50 [12] was 2.66 µM (active).

In the case of `O=C(NC1CCCc2ccccc21)c1ccc(O)nc1` (centres undefined), the AC50 [9] was “inconclusive”.

In the case of `COC(=O)[C@]12C[C@H](CC(=O)NCc3cccs3)C(=O)N(CCC3=CCCCC3)C1=C[C@H](C(C)(C)C)O[C@@H]2C`, the AC50 [1] was 51.6 µM (active), the AC50 [2] was 1.91 µM (active) and the AC50 [3] was 1.72 µM (active). For the same molecule, the AC50 [4] was 5.01 µM (active) and the AC50 [5] was 1.18 µM (active).

With `O=C(N/N=C/c1cccnc1)c1ccccc1OCc1ccc(Cl)cc1` the EC50 [13] was 3.35 µM (active) and the EC50 [12] was 1.5 µM (active).

With `CN1CCN(/N=C/c2ccc(N(c3ccccc3)c3ccccc3)cc2)CC1` the AC50 [14] was 5.11 µM (active), the AC50 [10] was 0.907 µM (active) and the AC50 [6] was 0.147 µM (active).

In the case of `O=C(c1ccco1)C(O)c1ccco1` (centres undefined), the EC50 [7] was > 40 µM (inactive) and the IC50 [8] was 35.2 µM (not active).

For `CC(C)[C@H](NC(=O)[C@H](CCCN=C(N)N)NC(=O)NC(Cc1ccccc1)C(=O)O)C(=O)NC(C=O)CCCN=C(N)N` (stereo partly drawn) ({ξF-CO}-Arg-Val-[ξR]-aldehyde), the IC50 [15] was 5.87 µM (active).
